Reference: ChEMBL document CHEMBL2029240 (ACS Med Chem Lett, 2011)

Columns and labels:
[1] = biological target: C-C chemokine receptor type 2 (Homo sapiens, UniProt P41597)
Description: Displacement of [125I]MCP1 from human CCR2 in PBMC after 30 mins by gamma counting

hERG (KCNH2) = hERG (KCNH2) (Homo sapiens, UniProt Q12809); experiment: Inhibition of human ERG at 10 uM by patch clamp assay
[2] = biological target: Voltage-gated inwardly rectifying potassium channel KCNH2 (Homo sapiens, UniProt Q12809); experiment: Displacement of [3H]dofetilide from human ERG
Chain of Voltage-gated inwardly rectifying potassium channel KCNH2 (Q12809 whole entry): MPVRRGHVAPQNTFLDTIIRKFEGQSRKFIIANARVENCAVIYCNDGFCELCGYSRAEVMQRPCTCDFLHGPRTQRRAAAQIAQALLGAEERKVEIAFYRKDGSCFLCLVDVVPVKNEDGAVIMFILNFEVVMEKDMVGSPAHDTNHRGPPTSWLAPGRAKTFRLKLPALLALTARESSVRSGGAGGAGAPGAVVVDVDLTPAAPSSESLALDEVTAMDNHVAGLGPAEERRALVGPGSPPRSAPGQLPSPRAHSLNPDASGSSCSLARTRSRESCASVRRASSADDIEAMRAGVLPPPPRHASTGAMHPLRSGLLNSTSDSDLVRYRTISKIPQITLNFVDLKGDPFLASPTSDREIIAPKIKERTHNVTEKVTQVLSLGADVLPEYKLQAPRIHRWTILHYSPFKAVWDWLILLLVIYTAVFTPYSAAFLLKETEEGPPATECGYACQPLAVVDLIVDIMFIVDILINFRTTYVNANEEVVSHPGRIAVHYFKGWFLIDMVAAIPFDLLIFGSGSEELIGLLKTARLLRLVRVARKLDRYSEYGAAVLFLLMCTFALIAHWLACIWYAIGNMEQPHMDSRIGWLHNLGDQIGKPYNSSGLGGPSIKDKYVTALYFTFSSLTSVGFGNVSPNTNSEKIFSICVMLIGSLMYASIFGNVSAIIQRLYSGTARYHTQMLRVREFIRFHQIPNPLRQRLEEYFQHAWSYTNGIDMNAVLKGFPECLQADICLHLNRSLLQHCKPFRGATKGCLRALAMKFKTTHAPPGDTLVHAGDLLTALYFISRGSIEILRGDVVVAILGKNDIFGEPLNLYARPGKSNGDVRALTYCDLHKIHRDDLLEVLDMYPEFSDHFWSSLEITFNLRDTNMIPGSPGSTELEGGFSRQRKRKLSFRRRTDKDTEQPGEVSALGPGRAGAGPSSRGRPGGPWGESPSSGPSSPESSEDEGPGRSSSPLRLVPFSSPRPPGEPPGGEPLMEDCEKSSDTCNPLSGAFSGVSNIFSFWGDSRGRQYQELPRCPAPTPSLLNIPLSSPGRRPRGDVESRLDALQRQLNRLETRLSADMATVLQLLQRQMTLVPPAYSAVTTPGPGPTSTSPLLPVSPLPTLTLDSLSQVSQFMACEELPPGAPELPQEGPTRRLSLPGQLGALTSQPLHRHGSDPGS

Chain of C-C chemokine receptor type 2 (P41597 whole entry): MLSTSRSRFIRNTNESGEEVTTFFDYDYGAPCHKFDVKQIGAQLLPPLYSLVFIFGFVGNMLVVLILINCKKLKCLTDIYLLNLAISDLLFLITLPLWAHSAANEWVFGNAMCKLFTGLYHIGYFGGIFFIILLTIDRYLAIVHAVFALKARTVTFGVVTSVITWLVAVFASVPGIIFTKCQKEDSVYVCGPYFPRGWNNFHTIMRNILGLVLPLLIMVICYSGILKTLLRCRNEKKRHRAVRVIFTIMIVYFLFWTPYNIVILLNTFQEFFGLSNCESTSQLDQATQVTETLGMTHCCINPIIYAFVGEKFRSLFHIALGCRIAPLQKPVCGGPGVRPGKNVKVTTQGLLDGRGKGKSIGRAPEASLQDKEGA
Chain of hERG (KCNH2) (Q12809 whole entry): as the sequence (Q12809 whole entry) above

SMILES | IC50 [1] | inhibition at 10 µM (hERG (KCNH2)) | IC50 [2]
O=C(NCC(=O)N1CC[C@@H](N[C@H]2CC[C@@H](c3ccccc3)CC2)C1)c1cccc(C(F)(F)F)c1 | 860 nM | – | –
O=C(NCC(=O)N1CC[C@H](N[C@H]2CC[C@@H](c3ccccc3)CC2)C1)c1cccc(C(F)(F)F)c1 | 35 nM | – | –
CN([C@H]1CCN(C(=O)CNC(=O)c2cccc(C(F)(F)F)c2)C1)[C@H]1CC[C@@H](c2ccccc2)CC1 | 84 nM | – | –
O=C(NCC(=O)N1CC[C@H](N[C@H]2CC[C@@](O)(c3ccccc3)CC2)C1)c1cccc(C(F)(F)F)c1 | 65 nM | – | –
COc1ccc([C@]2(O)CC[C@H](N[C@H]3CCN(C(=O)CNC(=O)c4cccc(C(F)(F)F)c4)C3)CC2)cn1 | 95 nM | – | –
O=C(NCC(=O)N1CC[C@H](N[C@H]2CC[C@@](O)(c3ccccn3)CC2)C1)c1cccc(C(F)(F)F)c1 | – | 34% | > 30000 nM
O=C(NCC(=O)N1CC[C@H](N[C@H]2CC[C@@](O)(c3nccs3)CC2)C1)c1cccc(C(F)(F)F)c1 | 18 nM | – | –
Cc1ccc([C@]2(O)CC[C@H](N[C@H]3CCN(C(=O)CNC(=O)c4cccc(C(F)(F)F)c4)C3)CC2)nc1 | – | 71% | 24000 nM
O=C(NCC(=O)N1CC[C@H](N[C@H]2CC[C@@](O)(c3ccc(-c4cccnc4)cn3)CC2)C1)c1cccc(C(F)(F)F)c1 | – | – | 30000 nM
